Converted amounts (≈) assume the structure as drawn.

One test deals with P388. Nature of the test: Cytotoxicity in murine lymphocytic leukemia (P388) cells. The class given is functional, cell-based. As to conditions: Mus musculus.
The subject of a further test is KB. Nature of the test: Cytotoxicity in human epidermoid carcinoma of the nasopharynx(KB) cells. It counts as functional, cell-based.
Test [1] concerns Mus musculus. Nature of the test: Antitumor activity against P388 leukemia cells was determined in mice at a dose 12.5 mg/kg administered i.p. on days 1-5. It counts as functional. As to conditions: route intraperitoneal.
The test system of test [2] is Mus musculus. Nature of the test: Antitumor activity against P388 leukemia cells was determined in mice at a dose 6.25 mg/kg administered i.p. on days 1-5. Particulars: route intraperitoneal. The class given is functional.
Test [3] has as its system Mus musculus. The experiment in a line: Antitumor activity against P388 leukemia cells was determined in mice at a dose 0.4 mg/kg administered i.p. on days 1-5. It counts as functional. Particulars: route intraperitoneal.
Test [4] has as its system Mus musculus. The experiment in a line: Antitumor activity against P388 leukemia cells was determined in mice at a dose 1.6 mg/kg administered i.p. on days 1-5. Particulars: route intraperitoneal. The class given is functional.
Test [5] relates to Mus musculus. The experiment in a line: Antitumor activity against P388 leukemia cells was determined in mice at a dose 0.8 mg/kg administered i.p. on days 1-5. It counts as functional. Particulars: route intraperitoneal.
In test [6] the test system is Mus musculus. The experiment in a line: Antitumor activity against P388 leukemia cells was determined in mice at a dose 3.13 mg/kg administered i.p. on days 1-5. Particulars: route intraperitoneal. It counts as functional.
The test system of test [7] is Mus musculus. Nature of the test: Antitumor activity against P388 leukemia cells was determined in mice at a dose 6.25 mg/kg administered i.p. on days 1-5; Toxic. The class given is functional, organism-based. Details: dose 6.25 mg/kg.
Test [8] has as its system Mus musculus. The experiment in a line: Antitumor activity against P388 leukemia cells was determined in mice at a dose 25.0 mg/kg administered i.p. on days 1-5. The class given is functional. As to conditions: route intraperitoneal.

Regarding `CCCCN1C(=O)[C@@H](C)NC(=O)[C@@H]2Cc3ccc(OC)c(c3)Oc3ccc(cc3)C[C@@H](C(=O)N2C)N(C)C(=O)[C@H](C)NC(=O)[C@H](Cc2ccc(OC)cc2)N(C)C(=O)[C@@H]1C`, the IC50 worked out at 0.01 µg/mL (≈ 0.0121 µM) in the test on P388 and 0.024 µg/mL (≈ 0.029 µM) with KB.
`COc1ccc(C[C@H]2C(=O)N[C@@H](C)C(=O)N(C)[C@H]3Cc4ccc(cc4)Oc4cc(ccc4OC)C[C@@H](C(=O)N[C@H](C)C(=O)N(CC=C(C)C)[C@@H](C)C(=O)N2C)N(C)C3=O)cc1`: the IC50 with P388 is 0.0058 µg/mL (≈ 0.00691 µM); with KB it was 0.0064 µg/mL (≈ 0.00763 µM). The T/C in the test with Mus musculus [1] was determined as 174%; in the test with Mus musculus [2], 160%; in the test on Mus musculus [3], 123%; with Mus musculus [4], 132%.
With `C=C(C)CN1C(=O)[C@@H](C)NC(=O)[C@@H]2Cc3ccc(OC)c(c3)Oc3ccc(cc3)C[C@@H](C(=O)N2C)N(C)C(=O)[C@H](C)NC(=O)[C@H](Cc2ccc(OC)cc2)N(C)C(=O)[C@@H]1C`, the IC50 with P388 amounted to 0.009 µg/mL (≈ 0.0109 µM); in the test with KB, 0.027 µg/mL (≈ 0.0327 µM).
On to `COc1ccc(C[C@H]2C(=O)N[C@@H](C)C(=O)N(C)[C@H]3Cc4ccc(cc4)Oc4cc(ccc4OC)C[C@@H](C(=O)N[C@H](C)C(=O)N[C@@H](C)C(=O)N2C)N(C)C3=O)cc1`, for which the IC50 with P388 came to 0.0013 µg/mL (≈ 0.00169 µM); in the test with KB, 0.0023 µg/mL (≈ 0.00298 µM). Besides, the T/C is reported as 144% in the test with Mus musculus [5], 144% with Mus musculus [3], 152% in the test with Mus musculus [4] and 163% in the test on Mus musculus [6]. In the test with Mus musculus [7], the Activity entry was “Toxic”.
Take `COc1ccc(C[C@H]2C(=O)N[C@@H](C)C(=O)N(C)[C@H]3Cc4ccc(cc4)Oc4cc(ccc4OC)C[C@@H](C(=O)N[C@H](C)C(=O)N(C)[C@@H](C)C(=O)N2C)N(C)C3=O)cc1`: the IC50 with P388 came to 0.0012 µg/mL (≈ 0.00153 µM); in the test with KB it was 0.0077 µg/mL (≈ 0.00981 µM).
As for `C=CCN1C(=O)[C@@H](C)NC(=O)[C@@H]2Cc3ccc(OC)c(c3)Oc3ccc(cc3)C[C@@H](C(=O)N2C)N(C)C(=O)[C@H](C)NC(=O)[C@H](Cc2ccc(OC)cc2)N(C)C(=O)[C@@H]1C`, the IC50 with P388 worked out at 0.015 µg/mL (≈ 0.0185 µM); in the test on KB it was 0.013 µg/mL (≈ 0.016 µM).
The matching figures for `CCN1C(=O)[C@@H](C)NC(=O)[C@@H]2Cc3ccc(OC)c(c3)Oc3ccc(cc3)C[C@@H](C(=O)N2C)N(C)C(=O)[C@H](C)NC(=O)[C@H](Cc2ccc(OC)cc2)N(C)C(=O)[C@@H]1C`: 0.035 µg/mL (≈ 0.0438 µM) and 0.035 µg/mL (≈ 0.0438 µM).
The matching figures for `COc1ccc(C[C@H]2C(=O)N[C@@H](C)C(=O)N(C)[C@H]3Cc4ccc(cc4)Oc4cc(ccc4OC)C[C@@H](C(=O)N[C@H](C)C(=O)N(C/C=C/c4ccccc4)[C@@H](C)C(=O)N2C)N(C)C3=O)cc1`: 0.0094 µg/mL (≈ 0.0106 µM) and 0.03 µg/mL (≈ 0.0338 µM).
`CC/C=C/CN1C(=O)[C@@H](C)NC(=O)[C@@H]2Cc3ccc(OC)c(c3)Oc3ccc(cc3)C[C@@H](C(=O)N2C)N(C)C(=O)[C@H](C)NC(=O)[C@H](Cc2ccc(OC)cc2)N(C)C(=O)[C@@H]1C`: the values for the IC50 in the test with P388 and in the test on KB were 0.01 µg/mL (≈ 0.0119 µM) and 0.022 µg/mL (≈ 0.0262 µM), respectively. Also, the T/C was determined as 155% in the test on Mus musculus [2], 113% in the test on Mus musculus [3] and 125% in the test on Mus musculus [4].
Regarding `CCCN1C(=O)[C@@H](C)NC(=O)[C@@H]2Cc3ccc(OC)c(c3)Oc3ccc(cc3)C[C@@H](C(=O)N2C)N(C)C(=O)[C@H](C)NC(=O)[C@H](Cc2ccc(OC)cc2)N(C)C(=O)[C@@H]1C`, the IC50 in the test with P388 was found to be 0.0032 µg/mL (≈ 0.00394 µM); in the test with KB, 0.0097 µg/mL (≈ 0.0119 µM).
Consider `CCCCCN1C(=O)[C@@H](C)NC(=O)[C@@H]2Cc3ccc(OC)c(c3)Oc3ccc(cc3)C[C@@H](C(=O)N2C)N(C)C(=O)[C@H](C)NC(=O)[C@H](Cc2ccc(OC)cc2)N(C)C(=O)[C@@H]1C`, for which the IC50 in the test on P388 was 0.018 µg/mL (≈ 0.0214 µM); in the test with KB, 0.063 µg/mL (≈ 0.0749 µM).
For `COc1ccc(C[C@H]2C(=O)N[C@@H](C)C(=O)N(C)[C@H]3Cc4ccc(cc4)Oc4cc(ccc4OC)C[C@@H](C(=O)N[C@H](C)C(=O)N(C/C=C(\C)CCC=C(C)C)[C@@H](C)C(=O)N2C)N(C)C3=O)cc1`, the values for the IC50 with P388 and in the test with KB were 0.044 µg/mL (≈ 0.0485 µM) and 0.062 µg/mL (≈ 0.0683 µM), respectively. Moreover, the T/C came to 148% with Mus musculus [2], 119% in the test with Mus musculus [3], 131% with Mus musculus [4] and 164% in the test on Mus musculus [8].
As to `C/C=C/CN1C(=O)[C@@H](C)NC(=O)[C@@H]2Cc3ccc(OC)c(c3)Oc3ccc(cc3)C[C@@H](C(=O)N2C)N(C)C(=O)[C@H](C)NC(=O)[C@H](Cc2ccc(OC)cc2)N(C)C(=O)[C@@H]1C`, the IC50 is 0.0076 µg/mL (≈ 0.00921 µM) in the test with P388 and 0.018 µg/mL (≈ 0.0218 µM) with KB. Moreover, the T/C with Mus musculus [2] is listed as 155%; in the test on Mus musculus [3] it was 112%; in the test on Mus musculus [4], 127%.

The record behind these values is ChEMBL document CHEMBL1127926, “Preparation and antitumor activity of [N-alkyl-Ala2]RA-VII, antitumor cyclic hexapeptide” (Bioorg Med Chem Lett, 1994).
